Laboratory results from patent US11274084B2, “3-aryl-4-amido-bicyclic [4,5,0] hydroxamic acids as HDAC inhibitors” (Valo Health, Inc., priority 2015, dated 2022).

Target: T1, HDAC6 (Homo sapiens, UniProt Q9UBN7)
T1 construct: Full length human recombinant HDAC6 protein; made in house
T1 sequence (Q9UBN7 1-1215): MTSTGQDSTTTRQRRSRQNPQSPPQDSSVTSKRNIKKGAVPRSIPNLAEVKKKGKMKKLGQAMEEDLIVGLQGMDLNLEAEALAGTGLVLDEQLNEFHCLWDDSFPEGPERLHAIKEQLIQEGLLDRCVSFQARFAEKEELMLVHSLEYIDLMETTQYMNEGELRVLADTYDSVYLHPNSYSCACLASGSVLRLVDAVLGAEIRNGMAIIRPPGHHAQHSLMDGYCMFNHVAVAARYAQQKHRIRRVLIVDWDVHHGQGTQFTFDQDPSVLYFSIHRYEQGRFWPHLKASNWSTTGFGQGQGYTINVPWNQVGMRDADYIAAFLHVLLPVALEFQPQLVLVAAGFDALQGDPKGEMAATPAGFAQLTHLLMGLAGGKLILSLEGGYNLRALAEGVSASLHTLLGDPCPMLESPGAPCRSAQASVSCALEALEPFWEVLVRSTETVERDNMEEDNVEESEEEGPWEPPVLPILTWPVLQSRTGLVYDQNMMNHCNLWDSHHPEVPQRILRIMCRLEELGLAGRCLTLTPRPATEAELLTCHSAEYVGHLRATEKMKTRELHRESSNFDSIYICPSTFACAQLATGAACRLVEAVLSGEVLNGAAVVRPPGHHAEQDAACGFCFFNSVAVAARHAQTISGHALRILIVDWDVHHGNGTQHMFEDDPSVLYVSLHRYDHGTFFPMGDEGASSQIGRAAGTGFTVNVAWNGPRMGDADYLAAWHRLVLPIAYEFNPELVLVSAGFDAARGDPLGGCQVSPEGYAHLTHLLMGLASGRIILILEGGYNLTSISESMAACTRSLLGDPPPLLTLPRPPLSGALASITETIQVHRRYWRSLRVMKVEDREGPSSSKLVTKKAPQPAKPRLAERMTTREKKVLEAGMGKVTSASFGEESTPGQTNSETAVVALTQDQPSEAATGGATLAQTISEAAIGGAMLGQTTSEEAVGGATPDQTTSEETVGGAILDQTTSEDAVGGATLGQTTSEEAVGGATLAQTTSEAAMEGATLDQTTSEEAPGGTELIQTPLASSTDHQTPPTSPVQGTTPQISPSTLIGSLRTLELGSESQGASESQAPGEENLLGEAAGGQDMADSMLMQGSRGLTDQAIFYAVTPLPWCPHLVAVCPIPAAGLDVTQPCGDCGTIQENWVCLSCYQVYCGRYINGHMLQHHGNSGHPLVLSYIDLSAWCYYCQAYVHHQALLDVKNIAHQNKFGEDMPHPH
Test: In vitro histone deacetylase assay: enzymatic HDAC6 assay by electrophoretic mobility shift
Format: biochemical
Settings: full length human recombinant HDAC6 1 nM, 2 μM peptide substrate RHKK(Ac)-NH2, 25° C., 12 concentrations; read-out: Inhibitory Concentration (IC50) against HDAC6, Activity Range
Description: The enzymatic HDAC6 assay was performed using electrophoretic mobility shift assay. […] The enzymatic reactions were assembled in 384-well plates in a total volume of 25 μL of a reaction buffer comprising. 100 mM HEPES, pH 7.5, 25 mM KCl, 0.1% bovine serum albumin, 0.01% Triton X-100, 1% DMSO (from compounds), 2 μM of the fluorescently labeled peptide substrate, and enzyme. The enzyme was added at a final concentration of 1 nM. The peptide substrate RHKK(Ac)-NH2 was used. The compounds were tested at 12 concentrations spaced by 3× dilution intervals. Negative control samples (0%-inhibition in the absence of inhibitor) and positive control samples (100%-inhibition) were assembled in replicates of four in each assay plate. The reactions were incubated at 25° C. and quenched by the addition of 45 μL of termination buffer (100 mM HEPES, pH 7.5, 0.01% Triton X-100, 0.05% SDS).
The terminated assay plates were analyzed on LabChip® 3000 microfluidic electrophoresis instrument (Perkin Elmer/Caliper Life Sciences). The fluorescence intensity of the electrophoretically separated de-acetylated product and substrate peptide was measured. Activity in each sample was determined as the product to sum ratio (PSR):P/(S+P), where P is the peak height of the product peptide and S is the peak height of the substrate peptide. Percent inhibition (Pinh) is determined using the following equation:
Pinh=(PSR0%−PSRinh)/(PSR0%−PSR100%)*100, where PSRinh is the product sum ratio in the presence of inhibitor, PSR0% is the average product sum ration in the absence of inhibitor, and PSR100% is the average product sum ratio in 100%-inhibition control samples. The IC50 values of inhibitors were determined by fitting the %-inhibition curves with 4 parameter dose-response models using XLfit 4 software.

Row | SMILES | IC50 [nM]
1 | COC1(C(=O)N2Cc3ccc(C(=O)NO)cc3OC[C@@H]2c2ccccc2)CC1 [(S)-N-hydroxy-4-(1-methoxycyclopropane-1-carbonyl)-3-phenyl-2,3,4,5-tetrahydrobenzo[f][1,4]oxazepine-8-carboxamide] | ≤ 100
2 | CN1CCC(C(=O)N2Cc3ccc(C(=O)NO)cc3OC[C@@H]2c2ccccc2)CC1 [(S)-N-hydroxy-4-(1-methylpiperidine-4-carbonyl)-3-phenyl-2,3,4,5-tetrahydrobenzo[f][1,4]oxazepine-8-carboxamide] | ≤ 100
3 | COC(C)(C)C(=O)N1Cc2ccc(C(=O)NO)cc2OC[C@@H]1c1ccccc1 [(S)-N-hydroxy-4-(2-methoxy-2-methylpropanoyl)-3-phenyl-2,3,4,5-tetrahydrobenzo[f][1,4]oxazepine-8-carboxamide] | ≤ 100
4 | CC1(C(=O)N2Cc3ccc(C(=O)NO)cc3OC[C@@H]2c2ccccc2)CCOCC1 [(S)-N-hydroxy-4-(4-methyltetrahydro-2H-pyran-4-carbonyl)-3-phenyl-2,3,4,5-tetrahydrobenzo[f][1,4]oxazepine-8-carboxamide] | ≤ 100
5 | CO[C@H]1CC[C@H](C(=O)N2Cc3ccc(C(=O)NO)cc3OC[C@@H]2c2ccccc2)CC1 [(S)-N-hydroxy-4-((1r,4S)-4-methoxycyclohexane-1-carbonyl)-3-phenyl-2,3,4,5-tetrahydrobenzo[f][1,4]oxazepine-8-carboxamide] | ≤ 100
6 | CO[C@H]1CC[C@@H](C(=O)N2Cc3ccc(C(=O)NO)cc3OC[C@@H]2c2ccccc2)CC1 [(S)-N-hydroxy-4-((1s,4R)-4-methoxycyclohexane-1-carbonyl)-3-phenyl-2,3,4,5-tetrahydrobenzo[f][1,4]oxazepine-8-carboxamide] | ≤ 100
7 | O=C(NO)c1ccc2c(c1)OC[C@H](c1ccccc1)N(C(=O)C1COC1)C2 [(S)-N-hydroxy-4-(oxetane-3-carbonyl)-3-phenyl-2,3,4,5-tetrahydrobenzo[f][1,4]oxazepine-8-carboxamide] | ≤ 100
8 | O=C(NO)c1ccc2c(c1)OC[C@H](c1ccc(C(F)(F)F)cc1)N(C(=O)C1CCOCC1)C2 [(S)-N-hydroxy-4-(tetrahydro-2H-pyran-4-carbonyl)-3-(4-(trifluoromethyl)phenyl)-2,3,4,5-tetrahydrobenzo[f][1,4]oxazepine-8-carboxamide] | ≤ 100
9 | Cc1ccccc1[C@H]1COc2cc(C(=O)NO)ccc2CN1C(=O)C1CCOCC1 [(S)-N-hydroxy-4-(tetrahydro-2H-pyran-4-carbonyl)-3-(o-tolyl)-2,3,4,5-tetrahydrobenzo[f][1,4]oxazepine-8-carboxamide] | ≤ 100
10 | Cc1ccc([C@H]2COc3cc(C(=O)NO)ccc3CN2C(=O)C2CCOCC2)cc1 [(S)-N-hydroxy-4-(tetrahydro-2H-pyran-4-carbonyl)-3-(p-tolyl)-2,3,4,5-tetrahydrobenzo[f][1,4]oxazepine-8-carboxamide] | ≤ 100
11 | CC(C)C(=O)N1Cc2ccc(C(=O)NO)cc2OC[C@@H]1c1ccccc1 [(S)-N-hydroxy-4-isobutyryl-3-phenyl-2,3,4,5-tetrahydrobenzo[f][1,4]oxazepine-8-carboxamide] | ≤ 100
12 | O=C(NO)c1ccc2c(c1)OC[C@H](c1ccccc1)N(C(=O)c1ccncc1)C2 [(S)-N-hydroxy-4-isonicotinoyl-3-phenyl-2,3,4,5-tetrahydrobenzo[f][1,4]oxazepine-8-carboxamide] | ≤ 100
13 | O=C(NO)c1ccc2c(c1)OC[C@H](c1ccccc1)N(C(=O)c1cccnc1)C2 [(S)-N-hydroxy-4-nicotinoyl-3-phenyl-2,3,4,5-tetrahydrobenzo[f][1,4]oxazepine-8-carboxamide] | ≤ 100
14 | COCC1(C(=O)N2Cc3ccc(C(=O)NO)cc3OC[C@@H]2c2ccccc2)CC1 [(S)—N-hydroxy-4-(1-(methoxymethyl)cyclopropane-1-carbonyl)-3-phenyl-2,3,4,5-tetrahydrobenzo[f][1,4]oxazepine-8-carboxamide] | ≤ 100
